Laboratory results: patent publication US20070031347A1, “Powdered Medicaments Containing A Tiotropium Salt and Salmeterol Xinafoate” (Boehringer Ingelheim Pharma GmbH & Co. KG, priority 2002, published 2007)

Test: compacted bulk volume (tapped density, Ph. Eur. 4 / Carr packed bulk density)
Type: physicochemical
Procedure: The compacted bulk volume is determined by the test method of the European Pharmacopoeia 4 (2002): “apparent density after settling”/“density of settled product”, identical to the “tapped density”, measured in grams per millilitre) or as the “Carr packed bulk density” according to the ASTM standard (D6393-99, Standard Test Method for Bulk Solids Characterization by Carr Indices), measured in grams per cm^3. The compacted bulk volume is a measurement of the volume which is taken up by solid, comminuted materials after they have been compacted under defined conditions.

compacted bulk volume (crystalline salmeterol xinafoate as obtained from ethanol/tert.butylmethylether, before micronisation): 0.27 g/mL | compacted bulk volume (micronised salmeterol xinafoate (air jet mill, grinding pressure 7.5 bar, feed pressure 8.0 bar)): 0.19 g/mL
SMILES: OCc1cc(C(O)CNCCCCCCOCCCCc2ccccc2)ccc1O (centres unmarked) [salmeterol xinafoate]
